According to patent publication US20240381872A1, “SUBSTITUTED 2,3-DIHYDRO[1,3]THIAZOLO[4,5-B]PYRIDINES, SALTS THEREOF AND THEIR USE AS HERBICIDALLY ACTIVE SUBSTANCES” (BAYER AKTIENGESELLSCHAFT, priority 2021, published 2024):

How the values were obtained:
Type in all cases: in vivo
[1] = test system: Alopecurus myosuroides (ALOMY); assay: Herbicidal pre-emergence action, section C (Table C2); settings: Alopecurus myosuroides, pre-emergence, 504 h; application rate 320 g/ha; visual grading after ca. 3 weeks vs untreated controls; read-out: pre-emergence activity against ALOMY in %
Description: (§1) Seeds of mono- and dicotyledonous weed plants and crop plants were sown, in plastic or organic planting pots, in sandy loam and covered with soil. The compounds according to the invention, formulated in the form of wettable powders (WP) or as emulsifiable concentrates (EC), were applied to the surface of the covering soil as aqueous suspension or emulsion, with the addition of 0.5% of an additive, at an application rate of 600 l of water/ha (converted). Following treatment, the pots were placed in a greenhouse and kept under optimum growth conditions for the test plants. The visual grading of the damage to the test plants was carried out after ca. 3 weeks in comparison to untreated controls (herbicidal effect in percent (%): 100% effect=plants have died off, 0% effect=as control plants).

[2] = test system: Echinochloa crus-galli (ECHCG); assay: Herbicidal pre-emergence action, section C (Table C3); settings: application rate 320 g/ha, visual grading after ca. 3 weeks vs untreated controls
Description: as §1

Lolium rigidum (LOLRI) [3] = assay: Herbicidal pre-emergence action, section C (Table C5); settings: Lolium rigidum, pre-emergence, 504 h; application rate 320 g/ha; visual grading after ca. 3 weeks; read-out: pre-emergence activity against LOLRI in %
Description: as §1

[4] = test system: Polygonum convolvulus (POLCO); assay: Herbicidal pre-emergence action, section C (Table C7); settings: Fallopia convolvulus, pre-emergence, 504 h; application rate 320 g/ha; visual grading after ca. 3 weeks; read-out: pre-emergence activity against POLCO in %
Description: as §1

Setaria viridis (SETVI) [5] = assay: Herbicidal pre-emergence action, section C (Table C8); settings: application rate 320 g/ha, visual grading after ca. 3 weeks
Description: as §1

Zea mays (ZEAMX) [6] = assay: Pre-emergence effects on crop plants, section D (Table D1); settings: visual grading after ca. 3 weeks
Summary of the method: (§2)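 After sowing in sandy loam and covering with soil, pots receive compound applied to the soil surface at rates up to 320 g/ha in 600 l water/ha containing 0.5% additive. Plants then grow under optimum greenhouse conditions. Percent herbicidal effect is rated visually at roughly 3 weeks against untreated pots.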

[7] = test system: Triticum aestivum (TRZAS); assay: Pre-emergence effects on crop plants, section D (Table D2); settings: visual grading after ca. 3 weeks
Summary of the method: as §2

Oryza sativa (ORYZA) [8] = assay: Pre-emergence effects on crop plants, section D (Table D3); settings: visual grading after ca. 3 weeks
Description: (§3) Seeds of mono- and dicotyledonous weed plants and crop plants were sown, in plastic or organic planting pots, in sandy loam and covered with soil. The compounds according to the invention, formulated in the form of wettable powders (WP) or as emulsifiable concentrates (EC), were applied to the surface of the covering soil as aqueous suspension or emulsion, with the addition of 0.5% of an additive, at an application rate of 600 l of water/ha (converted).
(§4) Following treatment, the pots were placed in a greenhouse and kept under optimum growth conditions for the test plants. The visual grading of the damage to the test plants was carried out after ca. 3 weeks in comparison to untreated controls (herbicidal effect in percent (%): 100% effect=plants have died off, 0% effect=as control plants).
(§5) Tables D1 to D5 below show the effects of various compounds of the general formula (I) according to Table 1 on various crop plants and an application rate corresponding to 320 g/ha or below obtained by the experimental procedure mentioned above in Biological Examples, Section C.

Glycine max (GLXMA) [9] = assay: Pre-emergence effects on crop plants, section D (Table D4); settings: application rate 320 g/ha; visual grading after ca. 3 weeks
Summary of the method: as §2

Brassica napus (BRSNW) [10] = assay: Pre-emergence effects on crop plants, section D (Table D5); settings: application rate 80 g/ha; visual grading after ca. 3 weeks
Description: as §3, §4, §5

[11] = test system: Alopecurus myosuroides (ALOMY); assay: Herbicidal post-emergence action, section E (Table E2); settings: Alopecurus myosuroides, post-emergence, 504 h; application rate 320 g/ha; assessed visually after ca. 3 weeks; read-out: post-emergence activity against ALOMY in %
Description: (§6) Seeds of mono- and dicotyledonous weed plants and crop plants were sown, in plastic or organic planting pots, in sandy loam, covered with soil and grown in a greenhouse under controlled growth conditions. 2 to 3 weeks after sowing, the test plants were sprayed in the single-leaf stage. The compounds according to the invention, formulated in form of wettable powders (WP) or as emulsifiable concentrates (EC), were sprayed onto the green plant parts as aqueous suspension or emulsion, with the addition of 0.5% of an additive, at an application rate of 600 l of water/ha (converted). The test plants were placed in the greenhouse for ca. 3 weeks under optimum growth conditions, and then the effect of the preparations was assessed visually in comparison with untreated controls (herbicidal effect in percent (%): 100% effect=plants have died off, 0% effect=as control plants).

[12] = test system: Polygonum convolvulus (POLCO); assay: Herbicidal post-emergence action, section E (Table E7); settings: Fallopia convolvulus, 504 h, application rate 320 g/ha, visual assessment ca. 3 weeks after spraying, read-out: post-emergence activity against POLCO in %
Description: as §6

Veronica persica (VERPE) = assay: Herbicidal post-emergence action, section E (Table E9); settings: Veronica persica, 504 h, application rate 320 g/ha, visual assessment ca. 3 weeks after spraying, read-out: post-emergence activity against VERPE in %
Description: as §6

Zea mays (ZEAMX) [13] = assay: Post-emergence effects on crop plants, section F (Table F1); settings: application rate 320 g/ha
Summary of the method: (§7)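 Percent damage was rated by eye roughly 3 weeks after treatment against untreated plants, where 0% = as control and 100% = died off. Spraying used WP or EC formulations plus 0.5% additive at 600 l water/ha, with rates of 320 g/ha or less. Plants were at the single-leaf stage, sown 2-3 weeks earlier in sandy loam under greenhouse conditions.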

[14] = test system: Triticum aestivum (TRZAS); assay: Post-emergence effects on crop plants, section F (Table F2); settings: application rate 320 g/ha
Summary of the method: as §7

Oryza sativa (ORYZA) [15] = assay: Post-emergence effects on crop plants, section F (Table F3)
Description: as §6, with “plants). Tables F1 to F4 below show the effects of selected compounds of the general formula (I) according to Table 1 on various crop plants and an application rate corresponding to 320 g/ha or below obtained by the experimental procedure mentioned above.” for “plants).”

Glycine max (GLXMA) [16] = assay: Post-emergence effects on crop plants, section F (Table F4)
Summary of the method: as §7

Brassica napus (BRSNW) [17] = assay: Post-emergence effects on crop plants, section F (Table F5); settings: application rate 80 g/ha
Description: as §6, with “plants). Tables F1 to F4 below show the effects of selected compounds of the general formula (I) according to Table 1 on various crop plants and an application rate corresponding to 320 g/ha or below obtained by the experimental procedure mentioned above.” for “plants).”

Kochia scoparia (KCHSC) [18] = assay: Herbicidal pre-emergence action, section A (Table A4); settings: application rate 1280 g/ha; visual grading after ca. 3 weeks vs untreated controls
Summary of the method: (§8)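 In this greenhouse test, sown seeds under soil cover received the compounds as suspensions or emulsions, with 0.5% additive, at 600 l water/ha before emergence. Damage was assessed by eye after about 3 weeks, compared with untreated controls.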

Lolium rigidum (LOLRI) [19] = assay: Herbicidal pre-emergence action, section A (Table A5); settings: application rate 1280 g/ha; visual grading after ca. 3 weeks vs untreated controls
Summary of the method: as §8

Poa annua (POAAN) = assay: Herbicidal pre-emergence action, section A (Table A7); settings: application rate 320 g/ha; visual grading after ca. 3 weeks vs untreated controls
Summary of the method: as §8

Setaria viridis (SETVI) [20] = assay: Herbicidal pre-emergence action, section A (Table A8); settings: application rate 320 g/ha
Summary of the method: as §8

Stellaria media (STEME) = assay: Herbicidal pre-emergence action, section A (Table A9); settings: application rate 1280 g/ha
Summary of the method: as §8

[21] = test system: Amaranthus retroflexus (AMARE); assay: Herbicidal pre-emergence action, section A (Table A11); settings: application rate 1280 g/ha
Summary of the method: as §8

[22] = test system: Digitaria sanguinalis (DIGSA); assay: Herbicidal pre-emergence action, section A (Table A12); settings: application rate 1280 g/ha
Summary of the method: as §8

Kochia scoparia (KCHSC) [23] = assay: Herbicidal post-emergence action, section B (Table B4); settings: application rate 1280 g/ha; visual rating about 3 weeks after treatment vs untreated controls
Summary of the method: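 Scores are visual % activity relative to untreated plants (0% = like control, 100% = dead), taken about 3 weeks after spraying. Compounds, as WP or EC in water with 0.5% additive at 600 L/ha, went onto one-leaf-stage weeds grown from seed in sandy loam under greenhouse conditions.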

[24] = test system: Amaranthus retroflexus (AMARE); assay: Herbicidal pre-emergence action, section C (Table C11); settings: application rate 80 g/ha; visual grading after ca. 3 weeks
Description: as §1

[25] = test system: Digitaria sanguinalis (DIGSA); assay: Herbicidal pre-emergence action, section C (Table C12); settings: application rate 320 g/ha; visual grading after ca. 3 weeks
Description: as §1

Structure (SMILES): Cc1cc2c(nc1-c1ccccc1F)N(C(=O)C1CC1)CS2 [Example I-018, cyclopropyl[5-(2-fluorophenyl)-6-methyl[1,3]thiazolo[4,5-b]pyridin-3(2H)-yl]methanone]
- pest or weed control at 320 g/ha [1]: 100%
- pest or weed control at 320 g/ha ([2]; Echinochloa crus-galli, pre-emergence, 504 h, read-out: pre-emergence activity against ECHCG in %): 100%
- pest or weed control at 320 g/ha (Lolium rigidum (LOLRI) [3]): 100%
- pest or weed control at 320 g/ha [4]: 90%
- pest or weed control at 320 g/ha (Setaria viridis (SETVI) [5]; Setaria viridis, pre-emergence, 504 h, read-out: pre-emergence activity against SETVI in %): 100%
- pre-emergence activity against ZEAMX in % (crop plant damage) (Zea mays (ZEAMX) [6]; application rate 80 g/ha): 20%
- pre-emergence activity against TRZAS in % (crop plant damage) ([7]; application rate 80 g/ha): 10%
- pre-emergence activity against ORYZA in % (crop plant damage) (Oryza sativa (ORYZA) [8]; application rate 80 g/ha): 10%
- pre-emergence activity against GLXMA in % (crop plant damage) (Glycine max (GLXMA) [9]): 10%
- pre-emergence activity against BRSNW in % (crop plant damage) (Brassica napus (BRSNW) [10]): 10%
- pest or weed control at 320 g/ha [11]: 90%
- pest or weed control at 320 g/ha [12]: 80%
- pest or weed control at 320 g/ha (Veronica persica (VERPE)): 90%
- percent crop plant damage (phytotoxicity) on Zea mays, post-emergence at 320 g/ha (Zea mays (ZEAMX) [13]; Zea mays, 504 h, read-out: post-emergence activity against ZEAMX in %): 20%
- percent crop plant damage (wheat, post-emergence) at 320 g/ha ([14]; Triticum aestivum, 504 h, read-out: post-emergence activity against TRZAS in %): 10%
- percent crop plant damage at 80 g/ha (Oryza sativa (ORYZA) [15]; Oryza sativa, 504 h, application rate 80 g/ha, read-out: post-emergence activity against ORYZA in %): 0%
- percent crop plant damage at 320 g/ha (Glycine max (GLXMA) [16]; Glycine max, 504 h, application rate 320 g/ha, read-out: post-emergence activity against GLXMA in %): 0%
- crop plant damage (phytotoxicity) in % at 80 g/ha (Brassica napus (BRSNW) [17]; Brassica napus, 504 h, read-out: post-emergence activity against BRSNW in %): 10%

Structure (SMILES): COc1ccccc1-c1nc2c(cc1Br)SCN2B(N)N [Example I-087]
- pre-emergence activity against KCHSC in % (Kochia scoparia (KCHSC) [18]): 90%
- pre-emergence activity against LOLRI in % (Lolium rigidum (LOLRI) [19]): 100%
- pre-emergence activity against POAAN in % (Poa annua (POAAN)): 100%
- pre-emergence activity against SETVI in % (Setaria viridis (SETVI) [20]): 100%
- pre-emergence activity against STEME in % (Stellaria media (STEME)): 90%
- pre-emergence activity against AMARE in % [21]: 90%
- pre-emergence activity against DIGSA in % [22]: 100%
- post-emergence activity against KCHSC in % (Kochia scoparia (KCHSC) [23]): 90%
- pre-emergence activity against ECHCG in % [2]: 90%
- pre-emergence activity against SETVI in % (Setaria viridis (SETVI) [5]): 100%
- pre-emergence activity against AMARE in % [24]: 90%
- pre-emergence activity against DIGSA in % [25]: 90%
- pre-emergence activity against ZEAMX in % (crop plant damage) (Zea mays (ZEAMX) [6]; application rate 320 g/ha): 10%
- pre-emergence activity against TRZAS in % (crop plant damage) ([7]; application rate 320 g/ha): 10%
- pre-emergence activity against ORYZA in % (crop plant damage) (Oryza sativa (ORYZA) [8]; application rate 320 g/ha): 20%
- pre-emergence activity against GLXMA in % (crop plant damage) (Glycine max (GLXMA) [9]): 20%
- pre-emergence activity against BRSNW in % (crop plant damage) (Brassica napus (BRSNW) [10]): 20%
- post-emergence activity against ZEAMX in % (Zea mays (ZEAMX) [13]; crop plant damage): 0%
- post-emergence activity against TRZAS in % ([14]; crop plant damage): 0%
- post-emergence activity against ORYZA in % (Oryza sativa (ORYZA) [15]; crop plant damage, application rate 320 g/ha): 0%
- post-emergence activity against GLXMA in % (Glycine max (GLXMA) [16]; crop plant damage, application rate 80 g/ha): 0%
- post-emergence activity against BRSNW in % (Brassica napus (BRSNW) [17]; crop plant damage): 0%
